The target of the experiment is Metallo-beta-lactamase type 2 (Bacteria, UniProt C7C422). Description: Enzyme Activity: Determination of IC50 : The Class B enzyme activities were measured in the presence of the test inhibitor in a fluorescence assay against a commercially available substrate consisting of a cephalosporin core linking 7-hydroxycoumarin to fluorescein (CCF2-FA). The enzyme (NDM-1, IMP-1 or VIM-1) and the substrate were diluted in 100 mM KH2PO4 buffer (pH 7) containing 0.005% Tween-20 and 10 μM ZnSO4. In the assay, the final concentration of enzyme was 1 pM, 2 pM and 30 pM for NDM-1, IMP-1 and VIM-1, respectively, and the final concentration of CCF2-FA was 1.25 μM. The test inhibitor was dissolved in dimethylsulfoxide and diluted 1:50 in the assay, resulting in a final concentration range of 20 μM to 0.00063 μM. In a 384-well microplate, the test inhibitor was incubated with the metallo-β-lactamase enzyme and the substrate for 2 hours at 25° C. Fluorescence at 460 nm following excitation at 405 nm was measured. The IC50 value was determined from semi-logarithmic plots of enzyme inhibition versus inhibitor concentration, with a curve generated using a 4-parameter fit.
Chain of Metallo-beta-lactamase type 2 (C7C422 whole entry): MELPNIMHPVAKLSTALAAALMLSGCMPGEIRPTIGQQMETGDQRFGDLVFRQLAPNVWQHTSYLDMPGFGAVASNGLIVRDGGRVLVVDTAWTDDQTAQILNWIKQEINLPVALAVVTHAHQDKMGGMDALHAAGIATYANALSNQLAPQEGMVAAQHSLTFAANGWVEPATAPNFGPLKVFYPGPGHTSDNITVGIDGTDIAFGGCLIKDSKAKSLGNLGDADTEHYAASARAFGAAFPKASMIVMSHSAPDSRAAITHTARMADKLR
Broadly, the IC50 is the midpoint of a concentration-inhibition curve. Take `NCC1CCN(c2ccc(S(=O)(=O)N[C@@H]3CCNC3)c(S(N)(=O)=O)c2-c2nn[nH]n2)CCN1` (stereo partly drawn): the 50% inhibitory concentration (IC50) stood at 19.2 nM. Consider `NC[C@@H](O)CNS(=O)(=O)c1ccc(N2CC[C@H](CN)C2)c(-c2nn[nH]n2)c1S(N)(=O)=O`, for which the half-inhibitory concentration (IC50) came out at 16.8 nM. Under `NC[C@@H](O)CNS(=O)(=O)c1ccc(Nc2ncc[nH]2)c(-c2nn[nH]n2)c1S(N)(=O)=O` stands 10.8 nM.

(Values after ChEMBL document CHEMBL5728888, “Metallo-beta-lactamase inhibitors and methods of use thereof” (2021).)
